This is an account of results in article PMC9963287 (Viruses, 2023).

On the set-up of series [1]: method as in earlier work. To be noted: in animals; cited from earlier work.
The target of a further series is SARS-CoV-2 M^pro (Severe acute respiratory syndrome coronavirus 2, UniProt P0DTD1). In words: In vitro FRET M^pro inhibition assay. To be noted: 50 nM M^pro; for IC50: FRET assay, inhibitor 3.125-100 μM, read-out: IC50 against M^pro enzymatic activity; for inhibition at 50 µM: initial screen at 50 μM compound, read-out: inhibitory activity against M^pro. Type of series: biochemical.

The target in series [2] is T1, M^pro (Severe acute respiratory syndrome coronavirus 2, UniProt P0DTD1). In words: Bio-layer interferometry binding kinetics assay. The arrangement: species or system SARS-CoV-2. Conditions: BLI, 1:1 binding model, 30 °C; for Kd: KD = koff/kon. In general terms: Biolayer interferometry detects binding as a change in optical thickness at a sensor tip.
Series [3] addresses T1, M^pro. Conditions: at a concentration of 50 μM; cited from earlier work.

A value given as a limit tells only on which side of the number the result lay.

For `CC(C)CC(NC(=O)OCc1ccccc1)C(=O)NC(CC1CCNC1=O)C(O)S(=O)(=O)O` (stereo not shown) [GC376], in series [1], the side effects entry is recorded as “delayed adult teeth development”.
Regarding `O=C(CC[C@@H](C(=O)Nc1cccc([N+](=O)[O-])c1)n1cnc2ccccc2c1=O)Nc1cccc([N+](=O)[O-])c1` [G1], on SARS-CoV-2 M^pro, the IC50 (usually the midpoint of a concentration-inhibition curve) is roughly 20 µM and the inhibition at 50 µM is greater than 50%. In addition, at M^pro [2], the koff – broadly, a measure of how fast the partners let go of each other – was found to be 0.00325 s⁻¹; the kon (as a rule, a measure of how fast the partners come together) worked out at 125 M⁻¹ s⁻¹; the affinity, expressed as Kd, was 26 µM.
As for `CC(O)(CS(=O)(=O)c1ccc(F)cc1)C(=O)Nc1ccc(C#N)c(C(F)(F)F)c1` (stereo not shown) [bicalutamide], the “M^pro inhibitory activity” value on M^pro [3] is “more than 30%”.
As to `COc1cccc(Nc2c(C(N)=O)cnc3c(C)cc(S(=O)(=O)c4cccc(C(=O)N(C)C)c4)cc23)c1` [GSK-256066], at M^pro [3], the “M^pro inhibitory activity” value is on record as “more than 30%”.
As to `Nc1ccc(OC(=O)CC[C@@H](C(=O)Oc2ccc(N)c([N+](=O)[O-])c2)n2cnc3ccccc3c2=O)cc1[N+](=O)[O-]` [G4], on SARS-CoV-2 M^pro, the IC50 was roughly 20 µM and the inhibition at 50 µM was greater than 50%. On M^pro [2], the koff was determined as 0.413 s⁻¹, the kon was 16200 M⁻¹ s⁻¹ and the Kd (usually a measure of binding affinity in units of concentration) stood at 25.5 µM.
